Source: patent US11882828B2, “Mosquito vector control compositions, methods and products utilizing same” (priority 2015, dated 2024)
Like-named read-outs stand apart in the source and are kept apart here.

Legend:
[1] = system: VK7; test: Example B5: bottle based cross resistance study (CDC bottle assay); type: in vivo; conditions: Anopheles coluzzii, Table B5b, after 24 hours
Method: (§1) Based on the “CDC bottle assay” (described at http://www.cdc.gov/malaria/resources/pdf/fsp/ir_manual/ir_cdc_bioassay_en.pdf) 1 ml of ethanol containing a test compound at a defined concentration was added to a 250 ml glass bottle and the bottles were placed on a rolling table to coat the inner surfaces as the solvent evaporated. Once dry, twenty five non-blood fed adult female mosquitoes of the appropriate species and strains (each three day old) were aspirated from the stock culture and gently blown into the exposure bottles. The lid of the bottle was replaced and the bottle placed upright out of direct sun light under standard culture conditions, nominally 28C and 60-80% relative humidity.
(§2) A stopwatch was started, and the assessment of the knock-down were made after 15 minutes and 60 minutes. A mosquito was said to be knocked down if it was unable to stand, following the CDC definition. The bottles were replaced in an upright position when not being assessed.
(§3) After one hour the mosquitoes were carefully removed from the bottle with an aspirator and placed in a recovery cup. The mosquitoes were supplied with a 10% sucrose solution on a cotton wool bung, and stored under culture conditions. Assessments of the mortality were made after 24 hours.
(§4) Each treatment was replicated a minimum of four times, with the mean knockdown or mortality recorded. In each study, a set of bottles was infested with a known insecticide susceptible strain of mosquitoes from the same genera as the resistant strains.

[2] = system: FUMOZ; test: as above; type: in vivo; conditions: Anopheles funestus, 24 h
Method: as §1, §2, §3, §4

[3] = system: An. Gambiae Kisumu sus; test: as above; type: in vivo; conditions: Anopheles gambiae, 24 h
Method: as §1, §2, §3, §4

[4] = system: Anopheles stephensi (Indian malaria mosquito); test: whole plant or invertebrate; conditions: Anopheles stephensi; for pest or weed control at 20 ppm: 1 h, read-out: Knockdown; for mortality at 20 ppm: 48 h
Method: […] Once the deposits were dry, five non-blood fed adult female Anopheles stephensi (between two to five days old) were added to each well, and sustained with a 10% sucrose solution in a cotton wool plug. Assessment of the knockdown after 1 hour, and mortality after 48 hours was carried out.
(§5) In case of multiple tests, the mean value is reported.

[5] = system: Anopheles stephensi; test: whole plant or invertebrate; conditions: Anopheles stephensi, 48 h
Method: (§6) The individual wells of six (6) well tissue culture plates were treated with 250 μl of an ethanol solution containing a test compound at a defined concentration. Once the deposits were dry, ten non-blood fed adult female Aedes aegypti or Anopheles stephensi (each between two to five day old) were added to each well, and sustained with a 10% sucrose solution in a cotton wool plug.
(§7) Assessment of the mortality was carried out at 48 hours.
(§8) Each treatment was replicated twice, with the mean mortality recorded.

[6] = system: Aedes aegypti; test: whole plant or invertebrate; conditions: Aedes aegypti, 48 h
Method: as §6, §7, §8

[7] = system: Anopheles stephensi; test: Example B7: evaluation of insecticide impregnated polymer surfaces; type: in vivo; conditions: AI content 2 wt %; for knock-down: after one hour; for mortality: 24 hours after exposure
Excerpt: (§9) Preparation of polymeric sheets: Certain methoxyacrylate were Impregnated into three polymers: LDPE (low density polyethylene), HDPE (high density polyethylene) and PP (polypropylene) in different concentrations by mixing the respective polymer with a compound at high temperatures and the resultant polymeric material were then mould into thin discs or plaques.
(§10) Twenty four hours prior to the relevant assessment intervals, three to five day old non-blood fed adult mosquitoes were taken from the culture and lightly anaesthetised with carbon dioxide. Ten females were selected and placed in a 250 ml plastic cup, retained with a net lid, provided with a 10% sucrose solution soaked in a cotton wool bung and held under culturing environmental conditions.
(§11) After twenty four hours, impregnated polymer sheets (measuring about 150 mm in diameter and about 0.1 mm in thickness) were removed from storage and wrapped around the glazed side of an 11 cm ceramic tile and held in place with an elastic band. A cup of the pre-selected mosquitoes were again lightly anaesthetised with carbon dioxide and transferred from the holding cup to the base of a 9 cm plastic Petri dish. The relevant impregnated polymer sheet was placed over the Petri dish and held in place with an elastic band. Once the mosquitoes had recovered from the anaesthetic, ca. 1 minute, the impregnated polymer sheet was placed on a holding rack, such that treated side was at an angle of […] to the horizontal.
(§12) After one hour an assessment of mosquito knockdown was made. A mosquito was said to be knocked down if it was unable to right itself once it had fallen over. The mosquitoes were lightly anaesthetised again, and removed from the Petri dish exposure chamber and returned to the holding cups. The mosquitoes were supplied with a 10% sucrose solution soaked in a cotton wool bung and held under culturing environmental conditions. An assessment of mortality was made 24 hours after exposure. A mosquito was said to be dead if it is unable to right itself once it had fallen over.

[8] = system: Aedes aegypti; test: as above; type: in vivo; conditions: AI content 2 wt %; for knock-down: after one hour; for mortality: 24 hours after exposure
Excerpt: as §9, §10, §11, §12

[9] = system: Aedes aegypti (Yellow fever mosquito); test: whole plant or invertebrate; conditions: Aedes aegypti; for pest or weed control at 20 ppm: 1 h, read-out: Knockdown; for mortality at 20 ppm: 48 h
Method: […] Once the deposits were dry, five non-blood fed adult female Aedes aegypti (between two to five days old) were added to each well, and sustained with a 10% sucrose solution in a cotton wool plug. Assessment of the knockdown after 1 hour, and mortality after 48 hours was carried out.
as §5

[10] = HDPE, polymer 8 to 12 weeks old
[11] = LDPE, polymer 8 to 12 weeks old
[12] = Table B5b, 25 ppm, after 24 hours, FUMOZ
[13] = Table B5b, 25 ppm, after 24 hours, Kisumu sus

CO/C=C(/C(=O)OC)c1ccccc1CO/N=C(\C)OC [Compound 22] showed a mortality at 25 ppm ([1]; read-out: Mortality) of 96%, a mortality at 25 ppm [2] of 68% and a mortality at 25 ppm [3] of 100%. For the same compound, the pest or weed control at 20 ppm [4] was 100%, the mortality at 20 ppm [4] was 100% and the mortality at 5 ppm [5] was 100%. For the same compound, the mortality at 5 ppm [6] was 100%, the knock-down ([7]; HDPE, polymer 2 to 4 weeks old) was 100% and the knock-down [7, 10] was 90%. For the same compound, the knock-down ([7]; LDPE, polymer 2 to 4 weeks old) was 100%, the knock-down [7, 11] was 80% and the knock-down ([7]; PP, polymer 2 to 4 weeks old) was 100%. The knock-down ([7]; PP, polymer 8 to 12 weeks old) was 100%, the knock-down ([8]; HDPE, polymer 2 to 4 weeks old) was 93% and the knock-down ([8]; HDPE, polymer 6 to 8 weeks old) was 95%. The knock-down ([8]; LDPE, polymer 2 to 4 weeks old) was 100%, the knock-down ([8]; LDPE, polymer 6 to 8 weeks old) was 100% and the knock-down ([8]; PP, polymer 2 to 4 weeks old) was 100%. It also gave a knock-down ([8]; PP, polymer 6 to 8 weeks old) of 100%, a pest or weed control at 20 ppm [9] of 100% and a mortality at 20 ppm [9] of 100%.
Work on CO/C=C(/C(=O)OC)c1ccccc1Oc1cc(C(F)(F)F)ccn1 [Compound 8, Methyl (E)-2-[2-[[4-(trifluoromethyl)-2-pyridyl]oxy]phenyl]-3-methoxy-prop-2-enoate] yielded a mortality at 25 ppm ([1]; 24 h) of 20%, a mortality at 25 ppm [2, 12] of 56% and a mortality at 25 ppm [3, 13] of 61%. The pest or weed control at 20 ppm [4] was 100%, the mortality at 20 ppm [4] was 100% and the mortality at 5 ppm [5] was 100%. The mortality at 5 ppm [6] was 100%, the mortality ([7]; HDPE, polymer 2 to 4 weeks old) was 100% and the knock-down ([7]; HDPE, polymer 2 to 4 weeks old) was 100%. It also gave a mortality [7, 10] of 80%, a knock-down [7, 10] of 100% and a mortality ([7]; LDPE, polymer 2 to 4 weeks old) of 100%. The knock-down ([7]; LDPE, polymer 2 to 4 weeks old) was 100%, the mortality [7, 11] was 100% and the knock-down [7, 11] was 90%. For the same compound, the mortality ([8]; HDPE, polymer 2 to 4 weeks old) was 53%, the knock-down ([8]; HDPE, polymer 2 to 4 weeks old) was 100% and the mortality ([8]; HDPE, polymer 6 to 8 weeks old) was 75%. For the same compound, the knock-down ([8]; HDPE, polymer 6 to 8 weeks old) was 100%, the mortality ([8]; LDPE, polymer 2 to 4 weeks old) was 100% and the knock-down ([8]; LDPE, polymer 2 to 4 weeks old) was 100%. It also gave a mortality ([8]; LDPE, polymer 6 to 8 weeks old) of 100%, a knock-down ([8]; LDPE, polymer 6 to 8 weeks old) of 100% and a pest or weed control at 20 ppm [9] of 67%. The mortality at 20 ppm [9] was 100%.
CO/C=C(/C(=O)OC)c1ccccc1Oc1ncc(C(F)(F)F)s1 [Compound 13, Methyl (E)-3-methoxy-2-[2-[5-(trifluoromethyl)thiazol-2-yl]oxyphenyl]prop-2-enoate] showed a mortality at 25 ppm ([1]; 24 h) of 61%, a mortality at 25 ppm [2, 12] of 70% and a mortality at 25 ppm [3, 13] of 94%. For the same compound, the pest or weed control at 20 ppm [4] was 100%, the mortality at 20 ppm [4] was 100% and the mortality at 5 ppm [5] was 100%. For the same compound, the mortality at 5 ppm [6] was 78%, the mortality ([7]; HDPE, polymer 2 to 4 weeks old) was 100% and the knock-down ([7]; HDPE, polymer 2 to 4 weeks old) was 100%. It also gave a mortality [7, 10] of 0%, a knock-down [7, 10] of 90% and a mortality ([7]; LDPE, polymer 2 to 4 weeks old) of 100%. The knock-down ([7]; LDPE, polymer 2 to 4 weeks old) was 100%, the mortality [7, 11] was 80% and the knock-down [7, 11] was 100%. The mortality ([7]; PP, polymer 2 to 4 weeks old) was 100%, the knock-down ([7]; PP, polymer 2 to 4 weeks old) was 100% and the mortality ([7]; PP, polymer 8 to 12 weeks old) was 10%. It also gave a knock-down ([7]; PP, polymer 8 to 12 weeks old) of 100%, a mortality ([8]; HDPE, polymer 2 to 4 weeks old) of 73% and a knock-down ([8]; HDPE, polymer 2 to 4 weeks old) of 100%. It also gave a mortality ([8]; HDPE, polymer 6 to 8 weeks old) of 65%, a knock-down ([8]; HDPE, polymer 6 to 8 weeks old) of 100% and a mortality ([8]; LDPE, polymer 2 to 4 weeks old) of 93%. The knock-down ([8]; LDPE, polymer 2 to 4 weeks old) was 100%, the mortality ([8]; LDPE, polymer 6 to 8 weeks old) was 95% and the knock-down ([8]; LDPE, polymer 6 to 8 weeks old) was 100%. The mortality ([8]; PP, polymer 2 to 4 weeks old) was 87%, the knock-down ([8]; PP, polymer 2 to 4 weeks old) was 100% and the mortality ([8]; PP, polymer 6 to 8 weeks old) was 35%. It also gave a knock-down ([8]; PP, polymer 6 to 8 weeks old) of 100%, a pest or weed control at 20 ppm [9] of 100% and a mortality at 20 ppm [9] of 100%.
